What all share (experiment): NCI anticancer screen, dose series, 48 h
The subject of experiment [1] is COLO 205.
For experiment [2], the system named is LOX IMVI.
For experiment [3], the system named is 786-0.
The subject of experiment [4] is SR.
Experiment [5] deals with CCRF-CEM.
Experiment [6] deals with EKVX.
Experiment [7] concerns HCT-15.
Experiment [8] deals with UACC-257.
In experiment [9] the test system is CAKI-1.
Experiment [10] relates to IGROV-1.
In experiment [11] the test system is OVCAR-4.
Experiment [12] concerns A498.
Experiment [13] concerns HCT-116.
Experiment [14] relates to UO-31.
In experiment [15] the test system is SNB-19.
The test system of experiment [16] is SN12C.

The text below walks through data of ChEMBL document CHEMBL1201862, “PubChem BioAssay data set” (2004).

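Five compound concentrations were applied to cells in 96-well plates for 48 hours; endpoints were derived by simple linear interpolation of the resulting dose-response curve. Abbreviation: GI50, concentration required for 50% inhibition of growth.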 Calls of active or inactive are those of the source. Cut-off read from the data, not from the text of the source: active = GI50 up to about 1.1 µM and inactive = higher.

`CNS(=O)(=O)NNS(=O)(=O)c1ccc(F)cc1`: the GI50 in experiment [1], in experiment [2], in [3], in experiment [4], in experiment [5] and in [6] was > 100 µM (inactive) in each case. Also, the GI50 in [7] is over 100 µM; in [8], > 100 µM (inactive); in experiment [9] it was > 100 µM (inactive); in experiment [10], > 100 µM (inactive); in experiment [11], > 100 µM (inactive); in experiment [12], > 100 µM (inactive). Besides, the GI50 in experiment [13], in [14] and in [15] was > 100 µM (inactive) in each case.

As to `O=C(NN1C(=O)CS(=O)(=O)C1c1cccc(F)c1)c1ccncc1` (stereo not drawn), the GI50 is > 100 µM (inactive) in experiment [1]; > 100 µM (inactive) in experiment [2]; > 100 µM (inactive) in experiment [3]; > 100 µM (inactive) in [4]; over 100 µM in experiment [7]; > 100 µM (inactive) in experiment [8]. For the same compound, the GI50 in experiment [9], in experiment [11], in experiment [12], in experiment [13], in [16] and in experiment [15] was > 100 µM (inactive) throughout.

As for `CCOC(=O)NC(=O)c1cn(CCN2CCN(C(=O)CCCCCCCCCCNc3ncnc4[nH]cnc34)CC2)c(=O)[nH]c1=O`, the GI50 in experiment [1], in experiment [2], in experiment [3], in experiment [4], in [5] and in experiment [6] was > 100 µM (inactive) throughout. Moreover, the GI50 in [7] is over 100 µM; in experiment [8] it was > 100 µM (inactive); in [9] it was 79.8 µM (inactive); in experiment [10], > 100 µM (inactive); in [11], > 100 µM (inactive); in [13], 40.1 µM (inactive). The GI50 in experiment [14], in experiment [16] and in experiment [15] was > 100 µM (inactive) in each case.

Turning to `Cc1ccc(S(=O)(=O)N/N=C(\C(=O)Nc2cccc([N+](=O)[O-])c2)c2nc3ccc([N+](=O)[O-])cc3nc2O)cc1`, the GI50 in experiment [1] was 28.2 µM (inactive); in experiment [2], 10.4 µM (inactive); in experiment [3] it was 61.9 µM (inactive); in experiment [4], 34 µM (inactive); in experiment [5], 7.64 µM (inactive); in experiment [6], 33.5 µM (inactive). Besides, the GI50 in experiment [7] was 16.3 µM; in experiment [8] it was 59.8 µM (inactive); in experiment [9] it was 23.2 µM (inactive); in experiment [10], > 100 µM (inactive); in experiment [11], > 100 µM (inactive); in [12] it was 17.1 µM (inactive). Further, the GI50 in experiment [13] was 27.5 µM (inactive); in experiment [14] it was 9.33 µM (inactive); in [16], > 100 µM (inactive); in experiment [15], > 100 µM (inactive).

On to `CCCCCCCCCCCCC/C=C1\C[C@H](O)COC1=O`, for which the GI50 in experiment [3] is 16 µM (inactive); in experiment [4], 18.6 µM (inactive); in experiment [5] it was 14.3 µM (inactive); in [6], 17.5 µM (inactive); in experiment [7], 16.5 µM; in experiment [8] it was 14.8 µM (inactive). Moreover, the GI50 was 18.9 µM (inactive) in experiment [9]; 18.1 µM (inactive) in experiment [10]; 16.9 µM (inactive) in [11]; 18.9 µM (inactive) in [12]; 15.9 µM (inactive) in [13]; 18.6 µM (inactive) in [14]. The values for the GI50 in experiment [16] and in experiment [15] were 14.9 µM (inactive) and 18.9 µM (inactive), respectively.

On to `COc1cc(C(C)c2cc3c(cc2OCCNC(=O)COc2cc4c(cc2C(C)c2cc(OC)c(OC)c(OC)c2)OCO4)OCO3)cc(OC)c1OC` (stereo not drawn), for which the GI50 in [1] is 48.2 µM (inactive); in [2], 42.3 µM (inactive); in [3], 49.8 µM (inactive); in [4], > 100 µM (inactive); in experiment [5], 30.5 µM (inactive); in experiment [6] it was 29.6 µM (inactive). Further, the GI50 in experiment [7] is 87.3 µM; in [8], 6.56 µM (inactive); in experiment [9], > 100 µM (inactive); in [10], > 100 µM (inactive); in experiment [11] it was > 100 µM (inactive); in experiment [12], > 100 µM (inactive). For the same compound, the GI50 is 87.9 µM (inactive) in experiment [13], > 100 µM (inactive) in [14], 60 µM (inactive) in [16] and > 100 µM (inactive) in experiment [15].

Take `N#CC(/C(CCCC(=O)Nc1cccc([N+](=O)[O-])c1)=N\NC(=O)c1c(O)ccc2ccccc12)c1nc2ccccc2s1` (stereo not drawn): the GI50 in experiment [1] was 30.1 µM (inactive); in experiment [3], 34.6 µM (inactive); in [4], 17.5 µM (inactive); in experiment [5] it was 5.35 µM (inactive); in [6], 35.4 µM (inactive); in experiment [8], 35.5 µM (inactive). Besides, the GI50 was 36.7 µM (inactive) in experiment [9]; 13.3 µM (inactive) in experiment [10]; 24.3 µM (inactive) in [11]; 35.1 µM (inactive) in [12]; 8.43 µM (inactive) in experiment [13]; 14.3 µM (inactive) in experiment [14]. In addition, the GI50 in [16] was 25.6 µM (inactive); in experiment [15], 36.8 µM (inactive).

As for `COc1cc2c(cc1O)C(C)Cc1cc3c(cc1N(C)CC2)OCO3` (stereo not drawn), the GI50 was 24.2 µM (inactive) in [1]; 5.68 µM (inactive) in experiment [2]; 4.35 µM (inactive) in experiment [3]; 4.45 µM (inactive) in experiment [4]; 4.59 µM (inactive) in experiment [5]; 4.26 µM (inactive) in experiment [6]. Further, the GI50 in [7] was 3.94 µM; in experiment [8], 6.15 µM (inactive); in [9] it was 12.1 µM (inactive); in experiment [10] it was 10 µM (inactive); in experiment [11] it was 15.7 µM (inactive); in experiment [12], 13.2 µM (inactive). In addition, the GI50 in experiment [13] is 4.04 µM (inactive); in experiment [14], 6.41 µM (inactive); in [16], 5.94 µM (inactive); in experiment [15], 7.4 µM (inactive).

In the case of `CCC(=O)OC[n+]1ccc2c(C)c3[nH]c4ccc(OC)cc4c3c(C)c2c1`, the GI50 is 0.0906 µM (active) in experiment [1]; 0.0927 µM (active) in experiment [2]; 0.176 µM (active) in experiment [3]; 0.0134 µM (active) in experiment [4]; 0.0685 µM (active) in experiment [5]; 0.7 µM (active) in experiment [8]. In addition, the GI50 in experiment [9] is 0.188 µM (active); in [10], 0.048 µM (active); in [11], 0.0865 µM (active); in [12] it was 1.06 µM (active); in experiment [13], 0.0182 µM (active); in experiment [16], < 0.01 µM (active). Also, the GI50 in experiment [15] is 1.57 µM (inactive).

As to `COc1ccc(C(=O)OC2C=COC(C)C2OC(=O)c2ccc(OC)cc2)cc1` (stereo not drawn), the GI50 is 42.8 µM (inactive) in experiment [1]; 14.7 µM (inactive) in [2]; 28.8 µM (inactive) in [3]; 16.1 µM (inactive) in experiment [4]; 7 µM (inactive) in experiment [5]; 36.9 µM (inactive) in experiment [6]. Besides, the GI50 in experiment [7] was 14.9 µM; in [8], 21 µM (inactive); in experiment [9] it was 28.8 µM (inactive); in [10], 37 µM (inactive); in experiment [11], 24.9 µM (inactive); in [12] it was > 100 µM (inactive). The GI50 in experiment [13] was 10.2 µM (inactive); in experiment [14], 45.4 µM (inactive); in experiment [16], 23.3 µM (inactive); in [15], 41.5 µM (inactive).

Take `CC1OC(n2ccc3ccc([N+](=O)[O-])cc32)C(O)C(O)C1O` (stereo not drawn): the GI50 in experiment [1], in [2], in experiment [3], in [4], in experiment [5] and in experiment [6] was > 100 µM (inactive) throughout. Also, the GI50 in experiment [7] was over 100 µM; in experiment [8], > 100 µM (inactive); in [9] it was > 100 µM (inactive); in [10], > 100 µM (inactive); in experiment [11] it was > 100 µM (inactive); in [12], > 100 µM (inactive). Besides, the GI50 in experiment [13], in experiment [14], in experiment [16] and in experiment [15] was > 100 µM (inactive) throughout.

As for `CC1=CCC[C@@]2(C)C(CC[C@@H]2C(C)/C=C/C(C)C)c2ccc(cc2C(=O)O)C[C@@H](O)CC1` (stereo partly drawn), the GI50 was 4.55 µM (inactive) in experiment [2]; 14.6 µM (inactive) in [3]; 13.5 µM (inactive) in experiment [4]; 5.09 µM (inactive) in experiment [5]; 5.07 µM in experiment [7]; 16.6 µM (inactive) in [8]. Besides, the GI50 was 17 µM (inactive) in experiment [9]; 12.3 µM (inactive) in experiment [10]; 12.1 µM (inactive) in experiment [11]; 20.2 µM (inactive) in experiment [12]; 5.21 µM (inactive) in experiment [13]; 15.7 µM (inactive) in experiment [14]. The GI50 in experiment [16] was 16 µM (inactive); in [15], 5.2 µM (inactive).

For `COC(=O)[C@@]1(O)CC(C)C=C1C=O` (stereo partly drawn), the GI50 in experiment [1] is > 100 µM (inactive); in experiment [2], 53.5 µM (inactive); in [3] it was 60.5 µM (inactive); in experiment [4], 55.3 µM (inactive); in experiment [5] it was 25.3 µM (inactive); in experiment [6], > 100 µM (inactive). Further, the GI50 was 17.8 µM in experiment [7]; > 100 µM (inactive) in experiment [8]; > 100 µM (inactive) in experiment [9]; > 100 µM (inactive) in experiment [10]; > 100 µM (inactive) in experiment [11]; > 100 µM (inactive) in experiment [12]. Moreover, the GI50 in experiment [13] was 20.8 µM (inactive); in [14], > 100 µM (inactive); in experiment [16], > 100 µM (inactive); in experiment [15], > 100 µM (inactive).
